The source of these data is patent publication US20220274997A1, “PIM KINASE INHIBITOR COMPOSITIONS AND USES THEREOF” (Snap Bio, Inc., priority 2019, published 2022).

The test system of one data set is A673. The experiment in a line: CellTiter-Glo cancer cell growth inhibition, A673. Type of data set: cell-based. From the text:
(§1) The CellTiter-Glo® Luminescent Cell Viability Assay is a sensitive homogeneous method to determine the number of viable cells in culture, Detection is based on using the luciferase reaction to measure the amount of ATP from viable cells. The amount of ATP in cells correlates with cell viability. Within minutes after a loss of membrane integrity, cells lose the ability to synthesize ATP, and endogenous ATPases destroy any remaining ATP; thus the levels of ATP fall precipitously. The CellTiter-Glo® Reagent does three things upon addition to cells. It lyses cell membranes to release ATP; it inhibits endogenous ATPases, and it provides luciferin, luciferase and other reagents necessary to measure ATP using a bioluminescent reaction. The unique properties of a proprietary stable luciferase.
(§2) All assays were performed by Reaction Biology Corporation (Malvern, Pa.) or ChemDiv, Inc. (San Diego, Calif.). All cell lines were purchased from American Type Culture Collection (ATCC, Manassas, Va.), except Huh 7 (RIKEN, Toyo, Japan) and HepaRG (Life Technologies, Carlsbad, Calif.).
(§3) Stock solutions ([…]) were diluted with cell culture media to produce 500× serial dilutions and […] of final compound dilutions were added to cells in assay plates to screen a series of 10 doses starting at […]. Final DMSO concentration was 0.2%. Assay plates are centrifuged at 100 rpm, 1 minute and kept at 37° C., 5% CO2, humidified atmosphere. […] Luminescence intensity was measured for each well using the Tecan M 1000 microplate reader after 5 min of incubation with CellTiter-Glo Reagent. The number of viable cells in culture was determined based on quantitation of the ATP present in each culture well. […] The EC50 curves were plotted and […] values were calculated using the GraphPad Prism 4 program based on a sigmoidal dose-response equation.

In another data set the test system is Huh7. The data set can be described thus: CellTiter-Glo cancer cell growth inhibition, Huh7. In kind it is cell-based.
From the text: as §1, §2, §3

Another data set relates to HepG2. The data set can be described thus: CellTiter-Glo cancer cell growth inhibition, HepG2. In kind it is cell-based, human.
From the text: as §1, §2, §3

A further data set has as its target T1, PIM3 (Homo sapiens, UniProt Q86V86).
T1 construct: purchased SignalChem, Richmond, Canada P37-10BG
The experiment in a line: LANCE Ultra kinase assay, PIM3. Type of data set: biochemical. Particulars: for Selectivity among PIM1-3 (EC50 plots, FIGS. 2A, 2B): LANCE Ultra assay; for IC50: LANCE assay. The source says: (§4) The second assay used was Perkin Elmer's LANCE® Ultra kinase assay which uses a ULight™-labeled peptide substrate and an appropriate Europium-labeled anti-phospho antibody. When the substrate becomes phosphorylated by a kinase of interest, the phosphorylated site on the substrate is recognized by the Europium-labeled anti-phospho antibody. […] The intensity of light emission is proportional to the level of ULight peptide phosphorylation. A kinase inhibitor reduces the FRET signal, thus providing an accurate and sensitive measure of inhibition potency.
(§5) The assay was performed in 384-well plates in two steps: PIM kinases were mixed with the ULight-substrate (CREBtide) in buffer and incubated for 10 min. Subsequently, ATP and molecules of the present disclosure were added in a kinase buffer at the appropriate concentration and the reactions were incubated for 1 hour, at room temperature in the dark. • After 1 h EDTA was added to stop the kinase reaction, Eu-W1024-labeled anti-phosphoserine-CREB (Ser133) Antibody (anti-phosphoCREBtide specific antibody) was added to the reaction in LANCE Detection buffer. The mixture was allowed to incubate for 30 min to allow binding of the antibody to the phosphorylated site before the plate was read using a Tecan microplate reader
(§6) Kinase Assay Buffer—50 mM HEPES pH7.0.1 mM EGTA, 10 mM MgCl2, 0.01% BRU-35.
(§7) The inhibitory activity of each compound against PIM kinases was measured with the LANCE® Ultra Kinase Assays by ChemDiv, Inc. (San Diego, Calif.).

The target of the next data set is T2, PIM2 (Homo sapiens, UniProt Q9P1W9).
T2 construct: purchased ProQinase, Freiburg, Germany 0223-0000-1
T2 sequence (Q9P1W9 whole entry): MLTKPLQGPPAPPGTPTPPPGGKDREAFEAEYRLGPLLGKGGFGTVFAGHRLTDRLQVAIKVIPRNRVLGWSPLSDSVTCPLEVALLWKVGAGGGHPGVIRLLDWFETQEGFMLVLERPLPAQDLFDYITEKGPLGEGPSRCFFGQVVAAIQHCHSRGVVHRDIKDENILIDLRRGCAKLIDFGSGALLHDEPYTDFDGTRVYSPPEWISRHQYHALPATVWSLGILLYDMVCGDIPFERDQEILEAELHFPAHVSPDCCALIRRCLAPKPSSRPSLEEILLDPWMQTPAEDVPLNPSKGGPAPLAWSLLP
The experiment in a line: LANCE Ultra kinase assay, PIM2. In kind it is biochemical.
From the text: as §4, §5, §6, §7

For a further data set, the system named is HepaRG. The experiment in a line: CellTiter-Glo cancer cell growth inhibition, HepaRG. In kind it is cell-based. To be noted: Homo sapiens, 72 h.
From the text: as §1, §2, §3

The next data set deals with T3, PIM1 (Homo sapiens, UniProt P11309).
T3 construct: purchased ProQinase, Freiburg, Germany 0186-0000-1
T3 sequence (P11309 whole entry): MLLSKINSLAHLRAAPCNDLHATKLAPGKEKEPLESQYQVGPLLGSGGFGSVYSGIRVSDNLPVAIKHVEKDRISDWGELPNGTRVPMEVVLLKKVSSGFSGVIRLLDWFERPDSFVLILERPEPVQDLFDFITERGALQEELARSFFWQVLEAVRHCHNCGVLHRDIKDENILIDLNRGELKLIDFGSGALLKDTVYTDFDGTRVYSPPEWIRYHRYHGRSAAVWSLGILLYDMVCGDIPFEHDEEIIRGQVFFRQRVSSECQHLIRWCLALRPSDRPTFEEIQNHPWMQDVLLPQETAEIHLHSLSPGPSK
The data set can be described thus: LANCE Ultra kinase assay, PIM1. Type of data set: biochemical.
From the text: as §4, §5, §6, §7

The test system of data set [1] is Hepa1-6 mouse liver cancer cells. The data set can be described thus: Hepa1-6 liver cancer xenograft mice. In kind it is in vivo. The protocol: Hepa1-6 mouse liver cancer cells are suspended in Hank's balanced salt solution (HBSS)(2×10^7 cells/mL), and the suspension (100 μL) was subcutaneously injected into the back flank of six female CD57 immunocompetent mice. After growing for 21 days, the tumors were resected, cut into small pieces, and inserted under the skin on each back flank of twelve female CD57 mice (24 tumors total). Mice were maintained for 15 days following tumor insertion to establish robust and consistent tumor growth. The mice were randomly split into six groups of two mice each (two tumors per mouse). Alter establishment of the Hepa1-6 xenografts in CD57 mice, tumor dimensions were measured every 2 days using micrometer calipers. Four groups were treated with compound 49 (PO: 25 mg/kg and 50 mg/k; IP: 10 mg/kg and 25 mg/kg) by both oral (PO, gavage) and intraperitoneal (IP) administration once per day (q.d.) and two control groups were administered vehicle only through the same routes for 10 consecutive days. Mice are weighed daily, starting from the date of Hepa1-6 tumor insertion (day 0). At 25 days after subcutaneous inoculation with Hepa1-6 tumors, mice were euthanized via carbon dioxide asphyxiation and all tumors were excised immediately following death, weighed and measured, and then snap-frozen in liquid nitrogen. Tumor volume (TV) was calculated by the following formula: TV=0.5ab^2, where a is tumor length in mm, and b is tumor width in mm. […] Body weight of mice in all groups was maintained within 10% of day 0 baseline.

Where [2] appears, read: growth inhibition, 72 hours, CellTiter-Glo.

Take `N[C@@H]1CCCN(c2c(/C=C3\SC(=O)NC3=O)cccc2-c2ccccc2)C1` [AZD-1208, reference compound]: the EC50 in the data set on A673 (setting [2]) was found to be 19.7 µM; with Huh7 (setting [2]), 13.5 µM; in the data set with HepG2 (setting [2]) it was 27.9 µM.
In the case of `O=C1NC(=O)c2c1c1c3ccc(O)cc3[nH]c1c1c2c2ccc(O)cc2n1CCN1CCOCC1` [Compound 32, 2,10-dihydroxy-12-(2-morpholinoethyl)-12,13-dihydro-5H-indolo[2,3-a]pyrrolo[3,4-c]carbazole-5,7(6H)-dione], the “Selectivity among PIM1-3 (EC50 plots, FIGS. 2A, 2B)” value on PIM3 is “PIM1 and PIM3 selectivity”. Further, the IC50 at PIM3 (ATP 0.1 mM) amounted to 0.0012 µM; at PIM3 (ATP 1 mM), 0.0049 µM; against PIM2 (ATP 0.1 mM), 0.036 µM; at PIM2 (ATP 1 mM), 0.48 µM; on PIM1 (ATP 0.1 mM), 0.00081 µM; at PIM1 (ATP 1 mM), 0.002 µM. Further, the EC50 in the data set on A673 (Homo sapiens, A673, 72 h) is 0.037 µM; with Huh7 (Homo sapiens, Huh-7, 72 h) it was 0.24 µM; in the data set on HepG2 (Homo sapiens, HepG2, 72 h), 0.57 µM; in the data set on HepaRG it was 0.25 µM.
For `O=C1NC(=O)c2c1c1c3cc(F)c(O)cc3[nH]c1c1c2c2cc(F)c(O)cc2n1CCN1CCOCC1` [Compound 37, 3,9-difluoro-2,10-dihydroxy-12-(2-morpholinoethyl)-12,13-dihydro-5H-indolo[2,3-a]pyrrolo[3,4-c]carbazole-5,7(6H)-dione], the IC50 was found to be 0.0011 µM against PIM3 (ATP 0.1 mM); 0.005 µM against PIM3 (ATP 1 mM); 0.013 µM against PIM2 (ATP 0.1 mM); 0.18 µM on PIM2 (ATP 1 mM); 0.0007 µM against PIM1 (ATP 0.1 mM); 0.00093 µM against PIM1 (ATP 1 mM). In addition, the EC50 was 0.0022 µM in the data set with A673 (Homo sapiens, A673, 72 h); 0.077 µM in the data set with Huh7 (Homo sapiens, Huh-7, 72 h); 0.054 µM in the data set with HepG2 (Homo sapiens, HepG2, 72 h); 0.016 µM with HepaRG.
For `O=C1NC(=O)c2c1c1c3ccncc3[nH]c1c1c2c2ccc(O)cc2n1CCN1CCOCC1` [Compound 41], the 50% inhibitory concentration (IC50) came to 0.0016 µM against PIM3 (ATP 1 mM), 0.674 µM on PIM2 (ATP 1 mM) and 0.00042 µM on PIM1 (ATP 1 mM). Besides, the EC50 came to 0.0044 µM with A673 (Homo sapiens, A673, 72 h) and 0.1 µM with Huh7 (Homo sapiens, Huh-7, 72 h).
On to `O=C1NC(=O)c2c1c1c3ccc(O)cc3[nH]c1c1c2c2ccncc2n1CCN1CCOCC1` [Compound 42], for which the IC50 was found to be 0.0019 µM against PIM3 (ATP 1 mM), 0.018 µM against PIM2 (ATP 1 mM) and 0.00016 µM on PIM1 (ATP 1 mM). Also, the EC50 with A673 (Homo sapiens, A673, 72 h) turned out to be 0.005 µM; in the data set on Huh7 (Homo sapiens, Huh-7, 72 h), 0.1 µM.
With `O=C1NC(=O)c2c1c1c3cc(F)ccc3[nH]c1c1c2c2cc(F)ccc2n1CCN1CCOCC1` [Compound 49, 3,9-difluoro-12-(2-morpholin-4-ylethyl)-12,13-dihydro-5H-indolo[2,3-a]pyrrolo[3,4-c]carbazole-5,7(6H)-dione], the IC50 is 0.0007 µM at PIM3 (ATP 0.1 mM), above 1 µM on PIM2 (ATP 0.1 mM) and 0.004 µM at PIM1 (ATP 0.1 mM). The EC50 is 0.057 µM with A673 (Homo sapiens, A673, 72 h); 0.1 µM in the data set with Huh7 (Homo sapiens, Huh-7, 72 h); 0.04 µM in the data set with HepG2 (Homo sapiens, HepG2, 72 h); above 10 µM in the data set on HepaRG. Also, the “Reduction of tumor size relative to control tumors” value in data set [1] (IP injection 25 mg/kg q.d., 10 days, CD57 mice) is “up to 50%”. Besides, the Tumor reduction result in data set [1] (PO dosing (25 mg/kg and 50 mg/kg) q.d., CD57 mice) is listed as “No tumor reduction was observed”; in data set [1] (lower doses (IP 10 mg/kg) q.d., CD57 mice) it was “No tumor reduction was observed”. The “Body weight change vs day 0 baseline” value in data set [1] (all groups (PO 25, 50 mg/kg; IP 10, 25 mg/kg)) was at most 10%.
For `O=C1NC(=O)c2c1c1c3cc(F)ccc3[nH]c1c1c2c2cc(F)ccc2n1CCN1CCCCC1` [Compound 51, 3,9-difluoro-12-(2-piperidin-1-ylethyl)-12,13-dihydro-5H-indolo[2,3-a]pyrrolo[3,4-c]carbazole-5,7(6H)-dione], the IC50 against PIM3 (ATP 0.1 mM) was 0.0008 µM; on PIM2 (ATP 0.1 mM), above 1 µM; against PIM1 (ATP 0.1 mM) it was 0.003 µM.
As for `C[C@@H]1CCC[C@H](C)N1CCn1c2ccc(F)cc2c2c3c(c4c5cc(F)ccc5[nH]c4c21)C(=O)NC3=O` [Compound 53, 12-{2-[(2R,6S)-2,6-dimethylpiperidin-1-yl]ethyl}-3,9-difluoro-12,13-dihydro-5H-indolo[2,3-a]pyrrolo[3,4-c]carbazole-5,7(6H)-dione], the “Selectivity among PIM1-3 (EC50 plots, FIGS. 2A, 2B)” value at PIM3 was “PIM1 and PIM3 selectivity”. The IC50 was 0.0024 µM against PIM3 (ATP 0.1 mM), above 1 µM at PIM2 (ATP 0.1 mM) and 0.003 µM against PIM1 (ATP 0.1 mM).
With `O=C1NC(=O)c2c1c1c3ccc(O)cc3[nH]c1c1c2c2ccc(O)cc2n1CCN1CCCCC1` [Compound 56, 2,10-dihydroxy-12-(2-piperidinoethyl)-12,13-dihydro-5H-indolo[2,3-a]pyrrolo[3,4-c]carbazole-5,7(6H)-dione], the IC50 was 0.001 µM on PIM3 (ATP 0.1 mM), 0.05 µM at PIM2 (ATP 0.1 mM) and 0.0007 µM against PIM1 (ATP 0.1 mM). The EC50 amounted to 0.035 µM in the data set on A673 (Homo sapiens, A673, 72 h); 0.484 µM with Huh7 (Homo sapiens, Huh-7, 72 h); 0.315 µM in the data set on HepG2 (Homo sapiens, HepG2, 72 h); 0.077 µM with HepaRG.
On to `C[C@@H]1CCC[C@H](C)N1CCn1c2cc(O)c(F)cc2c2c3c(c4c5cc(F)c(O)cc5[nH]c4c21)C(=O)NC3=O` [Compound 59, 12-{2-[(2R,6S)-2,6-dimethylpiperidin-1-yl]ethyl}-3,9-difluoro-2,10-dihydroxy-12,13-dihydro-5H-indolo[2,3-a]pyrrolo[3,4-c]carbazole-5,7(6H)-dione], for which the IC50 came out at 0.003 µM on PIM3 (ATP 0.1 mM), 0.037 µM on PIM2 (ATP 0.1 mM) and 0.0001 µM against PIM1 (ATP 0.1 mM). In addition, the EC50 in the data set with A673 (Homo sapiens, A673, 72 h) stood at 0.0031 µM; in the data set with Huh7 (Homo sapiens, Huh-7, 72 h), 0.925 µM; with HepG2 (Homo sapiens, HepG2, 72 h), 0.266 µM; in the data set on HepaRG, 0.02 µM.
Turning to `CNC(=O)c1cc(Oc2ccc(NC(=O)Nc3ccc(Cl)c(C(F)(F)F)c3)c(F)c2)ccn1` [Regorafenib, reference compound], the EC50 is 30 µM in the data set with A673 (Homo sapiens, A673, 72 h); 4.4 µM in the data set with Huh7 (Homo sapiens, Huh-7, 72 h); 4.3 µM in the data set with HepG2 (Homo sapiens, HepG2, 72 h); 2.3 µM with HepaRG.
On to `CNC(=O)c1cc(Oc2ccc(NC(=O)Nc3ccc(Cl)c(C(F)(F)F)c3)cc2)ccn1` [Sorafenib, reference compound], for which the EC50 with A673 (Homo sapiens, A673, 72 h) came to 18 µM; with Huh7 (Homo sapiens, Huh-7, 72 h), 2.6 µM; in the data set on HepG2 (Homo sapiens, HepG2, 72 h), 2.3 µM; in the data set with HepaRG it was 1.4 µM.
